Consider 23 compounds from PMC3684613 (PLoS ONE, 2013).

Read-outs that look alike come from different tables or passages of the source.

In assay [1] the test system is P. falciparum 3D7. The assay can be described thus: DAPI stain fluorescent high content imaging assay, P. falciparum 3D7 (confirmatory screen, Avery). To be noted: Plasmodium falciparum; for EC50: 3D7, read-out: EC50_nM; for inhibition of growth at 5 µM: 3D7, read-out: percent_inh @ 5 uM.
Assay [2] has as its system P. falciparum 3D7. Also noted: method as in ChEMBL-NTD. To be noted: ref ChEMBL-NTD, cited from earlier work.
The mark [3] stands for this setting: values follow the order of the source (GNF; GSK; StJude).

On to `O=C(NC1CCCCC1)C(c1cccs1)N(CCc1ccccc1)C(=O)c1ccco1` (centres unmarked) [MMV666106], for which the EC50 was 1.07 µM with P. falciparum 3D7 [1] and 1.04 µM in the assay on P. falciparum 3D7 [2] (source GSK (TCMDC ids)). In the assay on P. falciparum 3D7 [1], the inhibition of growth at 5 µM was found to be 90%.

`O=C(CCc1ccco1)NC1CCN(CC2(c3ccc(Cl)cc3)CCC2)CC1` [MMV666108]: in the assay with P. falciparum 3D7 [1], the EC50 came out at 1.14 µM and the inhibition of growth at 5 µM is 96%. Further, in the assay on P. falciparum 3D7 [2] (source GSK), the EC50 was 1.45 µM.

Take `CCOC(=O)C1(Cc2ccccc2)CCN(Cc2cccc(OC)c2O)CC1` [MMV666109]: the inhibition of growth at 5 µM in the assay with P. falciparum 3D7 [1] amounted to 95%. Moreover, the EC50 in the assay on P. falciparum 3D7 [2] (source StJude (SJ ids)) was 2.29 µM.

For the compound `C=C(C)CCC(C)N1CCC(N2CCC(C(=O)NCCc3ccccc3)CC2)CC1` (centres unmarked) [MMV666110], in the assay on P. falciparum 3D7 [1], the EC50 amounted to 1.75 µM and the inhibition of growth at 5 µM is 96%. The EC50 with P. falciparum 3D7 [2] (source StJude) is 4.26 µM.

For `Oc1ccccc1CN1CCC2(CCCN(Cc3ccccc3F)C2)C1` (centres unmarked) [MMV666116], in the assay on P. falciparum 3D7 [1], the EC50 is 0.548 µM and the inhibition of growth at 5 µM came to 98%. Also, the EC50 in the assay with P. falciparum 3D7 [2] (original screening data, source (GSK, GNF, StJude), several values separated by ';' in order of sources) is 0.679 µM.

As for `CC(C)(C)c1ccc(C(=O)Nc2c3c(nn2-c2cccc(Cl)c2)CSC3)cc1` [MMV666123], in the assay with P. falciparum 3D7 [1], the inhibition of growth at 5 µM is 93%. Moreover, the EC50 in the assay on P. falciparum 3D7 [2] (source StJude (SJ ids)) is 15 µM.

As for `CC(=O)c1ccc(NC(=O)CSc2nc(-c3ccccc3Cl)ns2)cc1` [MMV666124], the inhibition at 2.5 µM in the assay with P. falciparum 3D7 [1] (3D7, read-out: % inh. At 2.5 uM) turned out to be 88%. Besides, the EC50 with P. falciparum 3D7 [2] (source GSK (TCMDC ids)) was 1.13 µM.

For the compound `CC1=C(CC(=O)c2cccc([N+](=O)[O-])c2)C(=O)c2ccccc2C1=O` [MMV666125], in the assay on P. falciparum 3D7 [1], the EC50 worked out at 0.381 µM and the inhibition of growth at 5 µM was found to be 95%. For the same compound, in the assay on P. falciparum 3D7 [2] (source GNF (GNF-Pf ids)), the EC50 is 2.84 µM.

Take `CSC1=NC(=Nc2c(C)cccc2C)C2(CCC(C(C)(C)C)CC2)N1c1ccc(Cl)cc1` (centres unmarked) [MMV666596]: the EC50 in the assay on P. falciparum 3D7 [1] is 0.135 µM; in the assay on P. falciparum 3D7 [2] (source GNF (GNF-Pf id)) it was 1.48 µM. Further, in the assay on P. falciparum 3D7 [1], the inhibition of growth at 5 µM turned out to be 96%.

`CCCCCCc1cc2cc(-c3nc4ccccc4[nH]3)c(=Nc3ccccc3C)oc2cc1O` [MMV666597]: the EC50 in the assay on P. falciparum 3D7 [1] was 0.551 µM; with P. falciparum 3D7 [2] (setting [3]), 2.12 µM. The inhibition of growth at 5 µM with P. falciparum 3D7 [1] was 96%.

For `O=c1nc(C=Cc2ccc(Br)cc2)oc2ccccc12` [MMV666599], the inhibition of growth at 5 µM in the assay on P. falciparum 3D7 [1] turned out to be 94%. In addition, in the assay on P. falciparum 3D7 [2] (source GSK (TCMDC ids)), the EC50 is 1.05 µM.

As to `CCOC(=O)c1c(C)n(-c2ccc(Cl)cc2)c2ccc(OC(=O)C=Cc3ccccc3)cc12` [MMV666600], in the assay with P. falciparum 3D7 [1], the EC50 turned out to be 0.215 µM and the inhibition of growth at 5 µM is 97%. In the assay on P. falciparum 3D7 [2] (source GSK (TCMDC id)), the EC50 is 0.698 µM.

In the case of `CCOC(=O)C1=C(c2ccccc2)N=c2sc(=Cc3cc(C)n(-c4ccc(F)cc4)c3C)c(=O)n2C1c1cccc(OC)c1OC` (centres unmarked) [MMV666601], the results for the EC50 in the assay with P. falciparum 3D7 [1] and in the assay with P. falciparum 3D7 [2] (source GNF (GNF-Pf id)) were 0.154 µM and 2.33 µM, respectively. In the assay with P. falciparum 3D7 [1], the inhibition of growth at 5 µM came to 94%.

Take `CCOC(=O)C1=C(C)N=c2sc(=Cc3ccccc3O)c(=O)n2C1c1ccc(OC)c2ccccc12` (centres unmarked) [MMV666604]: in the assay with P. falciparum 3D7 [1], the EC50 is 1.51 µM and the inhibition of growth at 5 µM came to 97%. For the same compound, the EC50 with P. falciparum 3D7 [2] (source GSK (TCMDC ids)) is 1.26 µM.

Take `O=[N+]([O-])c1ccc(C=NNc2nc3ccccc3[nH]2)cc1` [MMV666607]: the EC50 in the assay on P. falciparum 3D7 [1] is 0.142 µM; in the assay with P. falciparum 3D7 [2] (source GNF (GNF-Pf id)), 0.818 µM; in the assay with P. falciparum 3D7 [2] (source GSK (TCMDC id)), 0.283 µM. In the assay on P. falciparum 3D7 [1], the inhibition of growth at 5 µM came to 99%.

For `COc1ccccc1C(=O)ON=C(N)Cc1cccc2ccccc12` [MMV666686], the EC50 with P. falciparum 3D7 [1] is 0.814 µM; with P. falciparum 3D7 [2] (setting [3]), 0.352 µM. Moreover, the inhibition of growth at 5 µM in the assay with P. falciparum 3D7 [1] was 97%.

In the case of `COc1cc(C(=O)ON=C(N)Cc2cccc3ccccc23)cc(OC)c1OC` [MMV666687], in the assay on P. falciparum 3D7 [1], the EC50 came to 0.782 µM and the inhibition of growth at 5 µM worked out at 99%. In addition, in the assay with P. falciparum 3D7 [2] (setting [3]), the EC50 was 0.28 µM.

Turning to `Cc1cc(C=C2SC(=Nc3ccccc3)N(C3CCCC3)C2=O)c(C)n1-c1ccc(Cl)cc1` [MMV666688], in the assay with P. falciparum 3D7 [1], the EC50 came to 0.263 µM and the inhibition of growth at 5 µM came to 97%. In addition, the EC50 with P. falciparum 3D7 [2] (source GSK (TCMDC id)) was 0.876 µM.

Turning to `COc1ccc(Nc2nc(NN=Cc3ccc(O)cc3)nc(Nc3ccc([N+](=O)[O-])cc3)n2)cc1` [MMV666689], the figures for the EC50 with P. falciparum 3D7 [1] and in the assay with P. falciparum 3D7 [2] (source GSK) were 0.532 µM and 1.12 µM, respectively. Further, in the assay with P. falciparum 3D7 [1], the inhibition of growth at 5 µM turned out to be 98%.

With `COc1ccc(C=C2SC(=N)N(c3ccccc3OC)C2=O)cc1` [MMV666691], in the assay on P. falciparum 3D7 [1], the EC50 stood at 0.168 µM and the inhibition of growth at 5 µM turned out to be 97%. For the same compound, in the assay on P. falciparum 3D7 [2] (source GSK (TCMDC id)), the EC50 was 0.3 µM.

Regarding `CCCCCCc1cc2cc(-c3csc(C=Cc4ccccc4)n3)c(=O)oc2cc1O` [MMV666692], in the assay with P. falciparum 3D7 [1], the EC50 turned out to be 0.387 µM and the inhibition of growth at 5 µM was found to be 92%. In the assay with P. falciparum 3D7 [2] (setting [3]), the EC50 is 0.97 µM.

With `COc1cccc(C=Cc2nc(=O)c3ccccc3o2)c1OC` [MMV666693], in the assay with P. falciparum 3D7 [1], the EC50 is 0.0238 µM and the inhibition of growth at 5 µM is 96%. Also, in the assay on P. falciparum 3D7 [2] (source GSK (TCMDC id)), the EC50 is 0.0644 µM.

With `COc1ccc(CCn2c(=N)c(C(=O)NCc3cccnc3)cc3c(=O)n4cccc(C)c4nc32)cc1` [MMV667488], the results for the EC50 in the assay with P. falciparum 3D7 [1] and in the assay with P. falciparum 3D7 [2] (setting [3]) were 0.373 µM and 1.4 µM, respectively.
